Assay results as given in patent US9259390B2, “Parenteral and oral formulations of benzimidazoles” (priority 2003, dated 2016).
Converted amounts (≈) assume the structure as drawn. “And” between values parts separate entries of the source, which are not always exact repeats. Equal entries are not always repeated.

Legend:
A375 = test: Cell growth inhibition in skin cancer cells; assay type: cell-based; settings: Homo sapiens, A-375
2237 = test: Cell growth inhibition in skin cancer cells; assay type: cell-based
H1299 cells = test: Cell growth inhibition in NSCLC cells; assay type: cell-based; settings: Homo sapiens, NCI-H1299, NSCLC cells; MZ from two microemulsion formulations
[1] = In vitro MZ release, USP Dissolution Apparatus 2; assay type: physicochemical; settings: for Cumulative MZ Released: individual determinations
Protocol: All four formulations were filled manually with a syringe into a hydrophilic airfill soft gelatin capsule (R. P. Scherer, Basking Ridge, N.J.) and the resulting hole was sealed thermally. […] C. Cremphor RH 40 was used to maintain the sink condition of the releasing medium. The release medium was constantly stirred at 50 rpm by a Teflon-coated dissolution paddle. Serial release samples were withdrawn and filtered through a 0.45 μm Millipore filter and analyzed by the HPLC assay.

[2] = 33 days
SRB1 = test: Cell growth inhibition in skin cancer cells; assay type: cell-based

COC(=O)Nc1nc2ccc(C(=O)c3ccccc3)cc2[nH]1 [MZ, methyl 5-benzoylbenzimidazole-2-carbamate]
IC50 (A375): 0.129 µg/mL (≈ 0.437 µM) | IC50 2237: 0.171 µg/mL (≈ 0.579 µM) | IC50 (H1299 cells): 0.008 µg/mL (≈ 0.0271 µM) | Cumulative MZ Released, Mean ([1]; 10 min): 0.04 % Dose | Cumulative MZ Released ([1]; 10 min, listed as MZ powder): 0.01 % Dose and 0.012 % Dose and 0.083 % Dose | Cumulative MZ Released, Mean ([1]; 20 min): 0.15 % Dose | Cumulative MZ Released ([1]; 20 min, listed as MZ powder): 0.035 % Dose and 0.22 % Dose and 0.18 % Dose | Cumulative MZ Released, Mean ([1]; 30 min): 0.22 % Dose | Cumulative MZ Released ([1]; 30 min, listed as MZ powder): 0.14 % Dose and 0.25 % Dose and 0.28 % Dose | Cumulative MZ Released, Mean ([1]; 40 min): 0.29 % Dose | Cumulative MZ Released ([1]; 40 min, listed as MZ powder): 0.22 % Dose and 0.23 % Dose and 0.41 % Dose | Cumulative MZ Released, Mean ([1]; 50 min): 0.29 % Dose | Cumulative MZ Released ([1]; 50 min, listed as MZ powder): 0.2 % Dose and 0.31 % Dose and 0.35 % Dose | Cumulative MZ Released ([1]; 60 min, listed as MZ powder): 0.27 % Dose (2×) and 0.32 % Dose | Cumulative MZ Released, Mean ([1]; 60 min, listed as MZ powder): 0.29 % Dose | Cumulative MZ Released, Mean ([1]; 60 min, listed as unformulated drug powder): 0.3 % Dose | logP (physchem): 2.51 | pH-stability [2]: sufficiently stable | IC50 (SRB1): 0.091 µg/mL (≈ 0.308 µM)
